“And” between values parts separate entries of the source, which are not always exact repeats. Equal values may be shown once.
Tests used:
RIP1 kinase = target: T1, RIP1 kinase (Homo sapiens, UniProt Q13546); experiment: fluorescent polarization based binding assay; conditions: mean of a minimum of 2 experiments
T1 sequence (Q13546 1-375 limits assumed): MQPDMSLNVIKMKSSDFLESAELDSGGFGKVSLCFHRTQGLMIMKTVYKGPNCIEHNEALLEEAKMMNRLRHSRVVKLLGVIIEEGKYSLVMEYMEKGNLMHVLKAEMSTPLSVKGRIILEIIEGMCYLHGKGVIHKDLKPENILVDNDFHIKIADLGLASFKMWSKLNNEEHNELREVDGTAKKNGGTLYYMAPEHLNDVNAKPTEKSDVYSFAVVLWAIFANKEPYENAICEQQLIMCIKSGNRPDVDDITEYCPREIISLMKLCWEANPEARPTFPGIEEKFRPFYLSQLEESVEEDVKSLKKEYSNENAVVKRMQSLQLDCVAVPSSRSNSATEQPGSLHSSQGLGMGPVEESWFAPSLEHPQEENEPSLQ
Excerpt: A fluorescent polarization based binding assay was used to assess the activity of the compounds of this invention, the details of which are disclosed in International Patent Appln. No. PCT/IB2014/059004, now, International Patent Appln. Pub.

[1] = test system: human monocytic leukemia U937 cells; experiment: necroptosis assay in U937 cells; format: cell-based; conditions: Homo sapiens, U-937, U937 cells; viability by cellular ATP (Cell Titer-Glo); read-out: pIC50, inhibited necrosis in U937 cells (converted)
Protocol: The efficacy of RIP1 inhibitors can be tested […] in vitro using a human monocytic leukemia U937 or mouse L929 fibrosarcoma cells in a necroptosis assay. As determined using the method described in S. He et al., Cell, 137(6):1100-1111 (2009) and International Patent Appln. No. PCT/IB2014/059004, now, International Patent Appln. Pub.
Viability was measured by quantitating cellular levels of ATP using the Cell Titer-Glo kit. All data are means±standard deviation of the mean.

Structure (SMILES) | IC50 (RIP1 kinase) | IC50 [1]
NC(=O)c1cnc(N2CCC(C(=O)N3N=CC[C@H]3c3cc(F)ccc3F)CC2)nc1 [Example 123, (S)-2-(4-(5-(2,5-difluorophenyl)-4,5-dihydro-1H-pyrazole-1-carbonyl)piperidin-1-yl)pyrimidine-5-carboxamide] | 1 to 31.6 nM | 1 to 100 nM
N#Cc1cccc([C@@H]2CC=NN2C(=O)C2CCN(c3cc(C#N)ncn3)CC2)c1 [Example 68, (S)-6-(4-(5-(3-cyanophenyl)-4,5-dihydro-1H-pyrazole-1-carbonyl)piperidin-1-yl)pyrimidine-4-carbonitrile] | 1 to 31.6 nM | 1 to 100 nM
N#Cc1cnc(N2CCC(C(=O)N3N=CC[C@H]3c3cc(F)cc(F)c3)CC2)nc1 [Example 92, (S)-2-(4-(5-(3,5-difluorophenyl)-4,5-dihydro-1H-pyrazole-1-carbonyl)piperidin-1-yl)pyrimidine-5-carbonitrile] | 1 to 31.6 nM and 1 to 10 nM | 1 to 100 nM
CCOC(=O)c1coc(N2CCC(C(=O)N3N=CC[C@H]3c3cc(F)cc(F)c3)CC2)n1 [Example 106, (S)-ethyl 2-(4-(5-(3,5-difluorophenyl)-4,5-dihydro-1H-pyrazole-1-carbonyl)piperidin-1-yl)oxazole-4-carboxylate] | 1 to 31.6 nM and 1 to 10 nM | 1 to 100 nM
NC(=O)c1ncnc(N2CCC(C(=O)N3N=CC[C@H]3c3cncc(F)c3)CC2)c1F [Example 160, (S)-5-fluoro-6-(4-(5-(5-fluoropyridin-3-yl)-4,5-dihydro-1H-pyrazole-1-carbonyl)piperidin-1-yl)pyrimidine-4-carboxamide] |  | 1 to 100 nM
O=C(C1CCN(c2ncc(F)c(OCc3nn[nH]n3)n2)CC1)N1N=CC[C@H]1c1ccccc1 [Example 154, (S)-(1-(4-((2H-tetrazol-5-yl)methoxy)-5-fluoropyrimidin-2-yl)piperidin-4-yl)(5-phenyl-4,5-dihydro-1H-pyrazol-1-yl)methanone] | 1 to 31.6 nM and 1 to 10 nM | 
N#Cc1ccnc(N2CCC(C(=O)N3N=CCC3c3ccccc3)CC2)n1 (racemic) [Example 5, 2-(4-(5-phenyl-4,5-dihydro-1H-pyrazole-1-carbonyl)piperidin-1-yl)pyrimidine-4-carbonitrile] |  | 1 to 100 nM
O=C1NCC[C@@H]1c1nc(N2CCC(C(=O)N3N=CC[C@H]3c3cncc(F)c3)CC2)ncc1F [Example 166, (R)-3-(5-fluoro-2-(4-((S)-5-(5-fluoropyridin-3-yl)-4,5-dihydro-1H-pyrazole-1-carbonyl)piperidin-1-yl)pyrimidin-4-yl)pyrrolidin-2-one] | 1 to 31.6 nM | 
O=C(NC1CC1)c1ccnc(N2CCC(C(=O)N3N=CC[C@H]3c3ccccc3)CC2)n1 [Example 125, (S)—N-cyclopropyl-2-(4-(5-phenyl-4,5-dihydro-1H-pyrazole-1-carbonyl)piperidin-1-yl)pyrimidine-4-carboxamide] |  | 1 to 100 nM
CC(=O)Nc1cc(N2CCC(C(=O)N3N=CC[C@H]3c3cc(F)cc(F)c3)CC2)ncn1 [Example 120, (S)-N-(6-(4-(5-(3,5-difluorophenyl)-4,5-dihydro-1H-pyrazole-1-carbonyl)piperidin-1-yl)pyrimidin-4-yl)acetamide] | 1 to 31.6 nM | 
O=C(C1CCN(c2ccn3nccc3n2)CC1)N1N=CC[C@H]1c1cc(F)cc(F)c1 [Example 90, (S)-(5-(3,5-difluorophenyl)-4,5-dihydro-1H-pyrazol-1-yl)(1-(pyrazolo[1,5-a]pyrimidin-5-yl)piperidin-4-yl)methanone] | 1 to 31.6 nM and 1 to 10 nM | 
O=C(C1CCN(c2nccc(-c3nn[nH]n3)n2)CC1)N1N=CC[C@H]1c1ccccc1 [Example 148, (S)-(1-(4-(2H-tetrazol-5-yl)pyrimidin-2-yl)piperidin-4-yl)(5-phenyl-4,5-dihydro-1H-pyrazol-1-yl)methanone] | 1 to 31.6 nM and 1 to 10 nM | 
O=C1NCCC1c1nc(N2CCC(C(=O)N3N=CC[C@H]3c3cncc(F)c3)CC2)ncc1F (stereo partly drawn) [Example 151, 3-(5-fluoro-2-(4-((S)-5-(5-fluoropyridin-3-yl)-4,5-dihydro-1H-pyrazole-1-carbonyl)piperidin-1-yl)pyrimidin-4-yl)pyrrolidin-2-one] |  | 1 to 100 nM
COc1cc(N2CCC(C(=O)N3N=CC[C@H]3c3cncc(F)c3)CC2)ncn1 [Example 113, (S)-(5-(5-fluoropyridin-3-yl)-4,5-dihydro-1H-pyrazol-1-yl)(1-(6-methoxypyrimidin-4-yl)piperidin-4-yl)methanone] | 1 to 31.6 nM | 
O=C(C1CCN(c2nccc(-c3ccccc3)n2)CC1)N1N=CCC1c1ccccc1 (racemic) [Example 4, (5-phenyl-4,5-dihydro-1H-pyrazol-1-yl)(1-(4-phenylpyrimidin-2-yl)piperidin-4-yl)methanone] |  | 1 to 100 nM
O=C(C1CCN(c2nc(=O)c3cn[nH]c3[nH]2)CC1)N1N=CC[C@H]1c1ccccc1 [Example 37, (S)-6-(4-(5-phenyl-4,5-dihydro-1H-pyrazole-1-carbonyl)piperidin-1-yl)-1H-pyrazolo[3,4-d]pyrimidin-4(7H)-one] | 1 to 31.6 nM | 
NC(=O)c1cnc(N2CCC(C(=O)N3N=CC[C@H]3c3ccccc3)CC2)cn1 [Example 63, (S)-5-(4-(5-phenyl-4,5-dihydro-1H-pyrazole-1-carbonyl)piperidin-1-yl)pyrazine-2-carboxamide] | 1 to 31.6 nM | 
N#Cc1cc(N2CCC(C(=O)N3N=CC[C@H]3c3cncc(F)c3)CC2)ncn1 [Example 111, (S)-6-(4-(5-(5-fluoropyridin-3-yl)-4,5-dihydro-1H-pyrazole-1-carbonyl)piperidin-1-yl)pyrimidine-4-carbonitrile] |  | 1 to 100 nM
N#Cc1ccc(N2CCC(C(=O)N3N=CC[C@H]3c3cc(F)cc(F)c3)CC2)nn1 [Example 94, (S)-6-(4-(5-(3,5-difluorophenyl)-4,5-dihydro-1H-pyrazole-1-carbonyl)piperidin-1-yl)pyridazine-3-carbonitrile] |  | 1 to 100 nM
CCOC(=O)c1cnc(N2CCC(C(=O)N3N=CC[C@H]3c3cc(F)cc(F)c3)CC2)o1 [Example 107, (S)-ethyl 2-(4-(5-(3,5-difluorophenyl)-4,5-dihydro-1H-pyrazole-1-carbonyl)piperidin-1-yl)oxazole-5-carboxylate] | 1 to 31.6 nM | 
COC(=O)c1cnc(N2CCC(C(=O)N3N=CC[C@H]3c3ccccc3)CC2)nc1 [Example 10, (S)-methyl 2-(4-(5-phenyl-4,5-dihydro-1H-pyrazole-1-carbonyl)piperidin-1-yl)pyrimidine-5-carboxylate] | 1 to 31.6 nM | 
CSc1nccc(N2CCC(C(=O)N3N=CC[C@H]3c3cncc(F)c3)CC2)n1 [Example 114, (S)-(5-(5-fluoropyridin-3-yl)-4,5-dihydro-1H-pyrazol-1-yl)(1-(2-(methylthio)pyrimidin-4-yl)piperidin-4-yl)methanone] | 1 to 31.6 nM | 
NC(=O)COc1nc(N2CCC(C(=O)N3N=CC[C@H]3c3ccccc3)CC2)ncc1F [Example 167, (S)-2-((5-fluoro-2-(4-(5-phenyl-4,5-dihydro-1H-pyrazole-1-carbonyl)piperidin-1-yl)pyrimidin-4-yl)oxy)acetamide] | 1 to 31.6 nM | 
NC(=O)c1ccc(N2CCC(C(=O)N3N=CC[C@H]3c3ccccc3)CC2)nc1 [Example 30, (S)-6-(4-(5-phenyl-4,5-dihydro-1H-pyrazole-1-carbonyl)piperidin-1-yl)nicotinamide] | 1 to 31.6 nM | 
COc1nccc(N2CCC(C(=O)N3N=CC[C@H]3c3cccc(C#N)c3)CC2)n1 [Example 75, (S)-3-(1-(1-(2-methoxypyrimidin-4-yl)piperidine-4-carbonyl)-4,5-dihydro-1H-pyrazol-5-yl)benzonitrile] | 1 to 31.6 nM | 
NC(=O)c1coc(N2CCC(C(=O)N3N=CC[C@H]3c3ccccc3)CC2)n1 [Example 136, (S)-2-(4-(5-phenyl-4,5-dihydro-1H-pyrazole-1-carbonyl)piperidin-1-yl)oxazole-4-carboxamide] | 1 to 31.6 nM | 
N#Cc1cnc(N2CCC(C(=O)N3N=CC[C@H]3c3cc(F)cc(F)c3)CC2)cn1 [Example 95, (S)-5-(4-(5-(3,5-difluorophenyl)-4,5-dihydro-1H-pyrazole-1-carbonyl)piperidin-1-yl)pyrazine-2-carbonitrile] |  | 1 to 100 nM
CCOC(=O)c1coc(N2CCC(C(=O)N3N=CC[C@H]3c3ccccc3)CC2)n1 [Example 65, (S)-ethyl 2-(4-(5-phenyl-4,5-dihydro-1H-pyrazole-1-carbonyl)piperidin-1-yl)oxazole-4-carboxylate] | 1 to 31.6 nM | 
Cc1nnc(-c2cc(N3CCC(C(=O)N4N=CC[C@H]4c4ccccc4)CC3)ncn2)o1 [Example 129, (S)-(1-(6-(5-methyl-1,3,4-oxadiazol-2-yl)pyrimidin-4-yl)piperidin-4-yl)(5-phenyl-4,5-dihydro-1H-pyrazol-1-yl)methanone] |  | 1 to 100 nM
N#Cc1cccc([C@@H]2CC=NN2C(=O)C2CCN(c3ccn4nccc4n3)CC2)c1 [Example 62, (S)-3-(1-(1-(pyrazolo[1,5-a]pyrimidin-5-yl)piperidine-4-carbonyl)-4,5-dihydro-1H-pyrazol-5-yl)benzonitrile] | 1 to 31.6 nM | 

— patent publication US20190345138A1, “HETEROCYCLIC AMIDES AS KINASE INHIBITORS” (GlaxoSmithKline Intellectual Property Development Limited, priority 2016, published 2019)
